The supplement of paper PMC10307832

Columns and labels:
Test in all cases: relative viability (nuclei count vs DMSO), 5 days (fraction); higher = more cells survive
NCI-H1975 = system: NCI-H1975
Procedure, shortened: (§1)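 Nuclei were stained with Hoechst during a one-step fixation (final 0.05% Triton X-100, 1% formaldehyde, 1 ug/ml Hoechst) carried out 5 days after dosing, then counted on 4× images. The cells, lung cancer lines in 1536-well plates, had been dosed by pin tool the day after seeding with one drug alone or a fixed anchor-drug dose plus five library-drug doses (not always all listed) in √10 steps. Relative viability is the nuclei count in treated wells divided by that in vehicle wells, and each value is the median of duplicate plates.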

LK-2 = system: LK-2
Procedure, shortened: as §1

EKVX = system: EKVX
Procedure, shortened: as §1

ChaGo-K-1 = system: ChaGo-K-1
Procedure, shortened: as §1

EPLC-272H = system: EPLC-272H
Procedure, shortened: as §1

NCI-H1666 = system: NCI-H1666
Procedure, shortened: as §1

SW 1573 = system: SW 1573
Procedure, shortened: as §1

EMC-BAC-2 = system: EMC-BAC-2
Procedure, shortened: as §1

HCC-78 = system: HCC-78
Procedure, shortened: as §1

LCLC-103H = system: LCLC-103H
Procedure, shortened: as §1

NCI-H322M = system: NCI-H322M
Procedure, shortened: as §1

LU99A = system: LU99A
Procedure, shortened: as §1

SW 900 = system: SW 900
Procedure, shortened: as §1

HCC-827 = system: HCC-827
Procedure, shortened: as §1

NCI-H2342 = system: NCI-H2342
Procedure, shortened: as §1

RERF-LC-KJ = system: RERF-LC-KJ
Procedure, shortened: as §1

NCI-H23 = system: NCI-H23
Procedure, shortened: as §1

SK-LU-1 = system: SK-LU-1
Procedure, shortened: as §1

PC-14 = system: PC-14
Procedure, shortened: as §1

NCI-H2126 = system: NCI-H2126
Procedure, shortened: as §1

NCI-H2405 = system: NCI-H2405
Procedure, shortened: as §1

SMILES: COc1cc2nccc(Oc3ccc(NC(=O)Nc4cc(C)on4)c(Cl)c3)c2cc1OC [Tivozanib] + Cc1cc(Nc2cc(N3CCN(C)CC3)nc(Sc3ccc(NC(=O)C4CC4)cc3)n2)n[nH]1 [Tozasertib] (partner 0.1 µM)
- relative viability (NCI-H1975; first compound 0.005 µM): 0.676
- relative viability (NCI-H1975; first compound 0.01581 µM): 0.739
- relative viability (NCI-H1975; first compound 0.05 µM): 0.789
- relative viability (NCI-H1975; first compound 0.1581 µM): 0.691
- relative viability (NCI-H1975; first compound 0.5 µM): 0.567
- relative viability (LK-2; first compound 0.005 µM): 0.173
- relative viability (LK-2; first compound 0.01581 µM): 0.175
- relative viability (LK-2; first compound 0.05 µM): 0.159
- relative viability (LK-2; first compound 0.1581 µM): 0.172
- relative viability (LK-2; first compound 0.5 µM): 0.177
- relative viability (EKVX; first compound 0.005 µM): 0.443
- relative viability (EKVX; first compound 0.01581 µM): 0.356
- relative viability (EKVX; first compound 0.05 µM): 0.35
- relative viability (EKVX; first compound 0.1581 µM): 0.47
- relative viability (EKVX; first compound 0.5 µM): 0.474
- relative viability (ChaGo-K-1; first compound 0.005 µM): 0.226
- relative viability (ChaGo-K-1; first compound 0.01581 µM): 0.247
- relative viability (ChaGo-K-1; first compound 0.05 µM): 0.216
- relative viability (ChaGo-K-1; first compound 0.1581 µM): 0.256
- relative viability (ChaGo-K-1; first compound 0.5 µM): 0.186
- relative viability (EPLC-272H; first compound 0.005 µM): 0.195
- relative viability (EPLC-272H; first compound 0.01581 µM): 0.255
- relative viability (EPLC-272H; first compound 0.05 µM): 0.387
- relative viability (EPLC-272H; first compound 0.1581 µM): 0.224
- relative viability (EPLC-272H; first compound 0.5 µM): 0.275
- relative viability (NCI-H1666; first compound 0.005 µM): 0.538
- relative viability (NCI-H1666; first compound 0.01581 µM): 0.605
- relative viability (NCI-H1666; first compound 0.05 µM): 0.668
- relative viability (NCI-H1666; first compound 0.1581 µM): 0.628
- relative viability (NCI-H1666; first compound 0.5 µM): 0.646
- relative viability (SW 1573; first compound 0.005 µM): 0.165
- relative viability (SW 1573; first compound 0.01581 µM): 0.17
- relative viability (SW 1573; first compound 0.05 µM): 0.198
- relative viability (SW 1573; first compound 0.1581 µM): 0.205
- relative viability (SW 1573; first compound 0.5 µM): 0.38
- relative viability (EMC-BAC-2; first compound 0.005 µM): 0.255
- relative viability (EMC-BAC-2; first compound 0.01581 µM): 0.3
- relative viability (EMC-BAC-2; first compound 0.05 µM): 0.295
- relative viability (EMC-BAC-2; first compound 0.1581 µM): 0.326
- relative viability (EMC-BAC-2; first compound 0.5 µM): 0.266
- relative viability (HCC-78; first compound 0.005 µM): 0.324
- relative viability (HCC-78; first compound 0.01581 µM): 0.472
- relative viability (HCC-78; first compound 0.05 µM): 0.347
- relative viability (HCC-78; first compound 0.1581 µM): 0.501
- relative viability (HCC-78; first compound 0.5 µM): 0.328
- relative viability (LCLC-103H; first compound 0.005 µM): 0.525
- relative viability (LCLC-103H; first compound 0.01581 µM): 0.503
- relative viability (LCLC-103H; first compound 0.05 µM): 0.449
- relative viability (LCLC-103H; first compound 0.1581 µM): 0.51
- relative viability (LCLC-103H; first compound 0.5 µM): 0.549
- relative viability (NCI-H322M; first compound 0.005 µM): 0.455
- relative viability (NCI-H322M; first compound 0.01581 µM): 0.48
- relative viability (NCI-H322M; first compound 0.05 µM): 0.518
- relative viability (NCI-H322M; first compound 0.1581 µM): 0.395
- relative viability (NCI-H322M; first compound 0.5 µM): 0.479
- relative viability (LU99A; first compound 0.005 µM): 0.299
- relative viability (LU99A; first compound 0.01581 µM): 0.279
- relative viability (LU99A; first compound 0.05 µM): 0.307
- relative viability (LU99A; first compound 0.1581 µM): 0.275
- relative viability (LU99A; first compound 0.5 µM): 0.256
- relative viability (SW 900; first compound 0.005 µM): 0.624
- relative viability (SW 900; first compound 0.01581 µM): 0.626
- relative viability (SW 900; first compound 0.05 µM): 0.606
- relative viability (SW 900; first compound 0.1581 µM): 0.637
- relative viability (SW 900; first compound 0.5 µM): 0.565
- relative viability (HCC-827; first compound 0.005 µM): 0.429
- relative viability (HCC-827; first compound 0.01581 µM): 0.421
- relative viability (HCC-827; first compound 0.05 µM): 0.417
- relative viability (HCC-827; first compound 0.1581 µM): 0.408
- relative viability (HCC-827; first compound 0.5 µM): 0.455
- relative viability (NCI-H2342; first compound 0.005 µM): 0.469
- relative viability (NCI-H2342; first compound 0.01581 µM): 0.543
- relative viability (NCI-H2342; first compound 0.05 µM): 0.603
- relative viability (NCI-H2342; first compound 0.5 µM): 0.43
- relative viability (RERF-LC-KJ; first compound 0.005 µM): 0.477
- relative viability (RERF-LC-KJ; first compound 0.01581 µM): 0.482
- relative viability (RERF-LC-KJ; first compound 0.05 µM): 0.533
- relative viability (RERF-LC-KJ; first compound 0.1581 µM): 0.534
- relative viability (RERF-LC-KJ; first compound 0.5 µM): 0.496
- relative viability (NCI-H23; first compound 0.005 µM): 0.324
- relative viability (NCI-H23; first compound 0.01581 µM): 0.323
- relative viability (NCI-H23; first compound 0.05 µM): 0.547
- relative viability (NCI-H23; first compound 0.1581 µM): 0.406
- relative viability (NCI-H23; first compound 0.5 µM): 0.427
- relative viability (SK-LU-1; first compound 0.005 µM): 0.332
- relative viability (SK-LU-1; first compound 0.01581 µM): 0.366
- relative viability (SK-LU-1; first compound 0.05 µM): 0.472
- relative viability (SK-LU-1; first compound 0.1581 µM): 0.357
- relative viability (SK-LU-1; first compound 0.5 µM): 0.335
- relative viability (PC-14; first compound 0.005 µM): 0.566
- relative viability (PC-14; first compound 0.01581 µM): 0.647
- relative viability (PC-14; first compound 0.05 µM): 0.55
- relative viability (PC-14; first compound 0.1581 µM): 0.615
- relative viability (PC-14; first compound 0.5 µM): 0.507
- relative viability (NCI-H2126; first compound 0.005 µM): 0.804
- relative viability (NCI-H2126; first compound 0.01581 µM): 0.846
- relative viability (NCI-H2126; first compound 0.05 µM): 0.915
- relative viability (NCI-H2126; first compound 0.1581 µM): 0.667
- relative viability (NCI-H2126; first compound 0.5 µM): 0.857
- relative viability (NCI-H2405; first compound 0.005 µM): 0.676
- relative viability (NCI-H2405; first compound 0.01581 µM): 0.753
- relative viability (NCI-H2405; first compound 0.05 µM): 0.841
- relative viability (NCI-H2405; first compound 0.1581 µM): 0.879
- relative viability (NCI-H2405; first compound 0.5 µM): 0.711
